Laboratory results published in patent publication US8957108B2, “Use of 5,6-dimethylxanthenone-4-acetic acid as an antiviral agent” (University of Maryland, Baltimore, priority 2006, dated 2015).

Test system: C57BL/6J macrophages
[1] = DMXAA 3 h vs unstimulated wild-type cells
[2] = ratio of fold change, wild-type vs IFN-β-deficient cells

## Cc1ccc2c(=O)c3cccc(CC(=O)O)c3oc2c1C [DMXAA, 5,6-dimethylxanthenone-4-acetic acid]
  CYP1A2 Fold Change: BL/6: −7.0 fold
  CYP1A2 WT/KO: 1.8
  CYP1B1 Fold Change: BL/6: −44.3 fold
  CYP1B1 WT/KO: 7.5
3 h, vs medium-treated cells
  number of genes down-regulated ≧3-fold: 26 genes
  number of genes up-regulated ≧3-fold: 110 genes
[1]
  2310043N10RIK Fold Change: BL/6: −7.1 fold
  5830484A20RIK Fold Change: BL/6: 5.7 fold
  ABCB1 Fold Change: BL/6: 7.9 fold
  ABL1 Fold Change: BL/6: −8.4 fold
  ABLIM1 Fold Change: BL/6: −9.7 fold
  ACVR1B Fold Change: BL/6: −4.5 fold
  ADRB2 Fold Change: BL/6: −3.2 fold
  AFTIPHILIN Fold Change: BL/6: 3.5 fold
  AKAP12 Fold Change: BL/6: 3.2 fold
  AMPD3 Fold Change: BL/6: −3.9 fold
  AP2A2 Fold Change: BL/6: −10.1 fold
  APBB1IP Fold Change: BL/6: −3.9 fold
  APOBEC3F Fold Change: BL/6: 3.5 fold
  ARHGEF3 Fold Change: BL/6: 4.2 fold
  ARID3A Fold Change: BL/6: −4.1 fold
  ARL4C Fold Change: BL/6: 5.7 fold
  ASF1A Fold Change: BL/6: 3.7 fold
  ATRX Fold Change: BL/6: −4.2 fold
  B3GAT3 Fold Change: BL/6: −9.0 fold
  BACE1 Fold Change: BL/6: −11.5 fold
  BAMBI Fold Change: BL/6: 4.0 fold
  BCL2 Fold Change: BL/6: −7.5 fold
  BCL2L1 Fold Change: BL/6: −14.0 fold
  BHLHB2 Fold Change: BL/6: −3.8 fold
  BID Fold Change: BL/6: 3.2 fold
  C8ORF4 Fold Change: BL/6: −35.4 fold
  C9ORF26 Fold Change: BL/6: 9.1 fold
  CCL2 Fold Change: BL/6: 125.6 fold
  CCL3 Fold Change: BL/6: 5.6 fold
  CCL4 Fold Change: BL/6: 15.1 fold
  CCL5 Fold Change: BL/6: 5.3 fold
  CCL7 Fold Change: BL/6: 9.6 fold
  CCL13 Fold Change: BL/6: 16.8 fold
  CCND2 Fold Change: BL/6: 6.4 fold
  CCNE1 Fold Change: BL/6: 3.2 fold
  CCNF Fold Change: BL/6: −10.6 fold
  CCRN4L Fold Change: BL/6: 5.7 fold
  CD37 Fold Change: BL/6: −5.2 fold
  CD40 Fold Change: BL/6: 10.3 fold
  CD86 Fold Change: BL/6: 11.1 fold
  CD274 Fold Change: BL/6: 6.0 fold
  CDC6 Fold Change: BL/6: 3.8 fold
  CDC7 Fold Change: BL/6: −3.4 fold
  CDC37L1 Fold Change: BL/6: −3.8 fold
  CDKN1A Fold Change: BL/6: 3.1 fold
  CEBPB Fold Change: BL/6: −3.3 fold
  CITED2 Fold Change: BL/6: 6.8 fold
  CLCA1 Fold Change: BL/6: −4.8 fold
  CNR2 Fold Change: BL/6: −9.1 fold
  CREBBP Fold Change: BL/6: −4.5 fold
  CXCL10 Fold Change: BL/6: 69.1 fold
  DAXX Fold Change: BL/6: 7.9 fold
  DSCR1 Fold Change: BL/6: 3.4 fold
  FGD6 Fold Change: BL/6: 3.0 fold
  FGL2 Fold Change: BL/6: 10.6 fold
  GBP2 Fold Change: BL/6: 4.8 fold
  GBP4 Fold Change: BL/6: 7.5 fold
  GBP6 Fold Change: BL/6: 10.8 fold
  GYPC Fold Change: BL/6: 5.9 fold
  IFI16 Fold Change: BL/6: 4.3 fold
  IFI35 Fold Change: BL/6: 3.6 fold
  IFI203 Fold Change: BL/6: 21.9 fold
  IFI205 Fold Change: BL/6: 6.4 fold
  IFIH1 Fold Change: BL/6: 10.1 fold
  IFIT1 Fold Change: BL/6: 33.5 fold
  IFIT2 Fold Change: BL/6: 27.1 fold
  IFIT3 Fold Change: BL/6: 32.2 fold
  IFNA5 Fold Change: BL/6: 32.4 fold
  IFNA6 Fold Change: BL/6: 77.7 fold
  IFNB1 Fold Change: BL/6: 194.1 fold
  IFNG Fold Change: BL/6: 46.5 fold
  IGTP Fold Change: BL/6: 13.7 fold
  IIGP1 Fold Change: BL/6: 21.9 fold
  IL6 Fold Change: BL/6: 564.6 fold
  IL12B Fold Change: BL/6: 4.4 fold
  IL15 Fold Change: BL/6: 7.2 fold
  IL15RA Fold Change: BL/6: 14.9 fold
  IRF1 Fold Change: BL/6: 6.9 fold
  IRF2 Fold Change: BL/6: 4.1 fold
  IRGM Fold Change: BL/6: 6.6 fold
  ISG20 Fold Change: BL/6: 20.9 fold
  KATNA1 Fold Change: BL/6: 3.2 fold
  LGP2 Fold Change: BL/6: 6.4 fold
  LHX2 Fold Change: BL/6: 92.1 fold
  LOC129607 Fold Change: BL/6: 58.9 fold
  MAFK Fold Change: BL/6: 4.7 fold
  MARCH5 Fold Change: BL/6: 4.7 fold
  MOV10 Fold Change: BL/6: 4.2 fold
  MX1 Fold Change: BL/6: 191.4 fold
  MX2 Fold Change: BL/6: 85.3 fold
  NMI Fold Change: BL/6: 4.5 fold
  NP Fold Change: BL/6: 4.1 fold
  NT5C3 Fold Change: BL/6: 6.4 fold
  OAS1B Fold Change: BL/6: 12.7 fold
  OASL Fold Change: BL/6: 35.6 fold
  P4HA1 Fold Change: BL/6: 4.3 fold
  P8 Fold Change: BL/6: 3.7 fold
  PARP9 Fold Change: BL/6: 4.0 fold
  PELI1 Fold Change: BL/6: 5.9 fold
  PGF Fold Change: BL/6: 25.3 fold
  PLAU Fold Change: BL/6: 3.9 fold
  PPP1R15A Fold Change: BL/6: 5.3 fold
  PTX3 Fold Change: BL/6: 5.3 fold
  PVRL2 Fold Change: BL/6: 6.4 fold
  PVRL4 Fold Change: BL/6: 9.0 fold
  REL Fold Change: BL/6: 3.1 fold
  RGC32 Fold Change: BL/6: 8.7 fold
  RIPK2 Fold Change: BL/6: 3.2 fold
  RSAD2 Fold Change: BL/6: 15.5 fold
  SAP30 Fold Change: BL/6: 3.9 fold
  SAV1 Fold Change: BL/6: 3.2 fold
  SDC4 Fold Change: BL/6: 3.9 fold
  SECTM1 Fold Change: BL/6: 17.7 fold
  SLC7A2 Fold Change: BL/6: 3.6 fold
  SOAT1 Fold Change: BL/6: 3.6 fold
  SOCS1 Fold Change: BL/6: 57.5 fold
  STAT2 Fold Change: BL/6: 3.9 fold
  TGTP Fold Change: BL/6: 60.2 fold
  TLK2 Fold Change: BL/6: 4.2 fold
  TLR3 Fold Change: BL/6: 8.8 fold
  TMOD3 Fold Change: BL/6: 3.4 fold
  TNF Fold Change: BL/6: 6.9 fold
  TNFRSF11B Fold Change: BL/6: 90.5 fold
  TNFSF9 Fold Change: BL/6: 5.1 fold
  TOR1AIP1 Fold Change: BL/6: 3.1 fold
  TPST1 Fold Change: BL/6: 6.7 fold
  TREX1 Fold Change: BL/6: 10.2 fold
  TRIM21 Fold Change: BL/6: 8.4 fold
  TRIM25 Fold Change: BL/6: 4.2 fold
  TRIM34 Fold Change: BL/6: 3.3 fold
  USP18 Fold Change: BL/6: 11.6 fold
  VCAM1 Fold Change: BL/6: 3.4 fold
  ZBP1 Fold Change: BL/6: 15.4 fold
  ZNF313 Fold Change: BL/6: 3.2 fold
Of the 136 genes, 3-fold difference wild-type vs IFN-β−/−
  number of modulated genes that are IFN-β-dependent: 77 genes
Of ˜14,000 genes analyzed, 3 h, vs medium-treated cells
  number of genes with ≧3-fold change in expression: 136 genes
[2]
  2310043N10RIK WT/KO: 3.2
  5830484A20RIK WT/KO: 1.4
  ABCB1 WT/KO: 1.1
  ABL1 WT/KO: 5.6
  ABLIM1 WT/KO: 7.1
  ACVR1B WT/KO: 1.9
  ADRB2 WT/KO: 1.9
  AFTIPHILIN WT/KO: 3.0
  AKAP12 WT/KO: 2.2
  AMPD3 WT/KO: 1.5
  AP2A2 WT/KO: 1.1
  APBB1IP WT/KO: 2.2
  APOBEC3F WT/KO: 2.5
  ARHGEF3 WT/KO: 2.1
  ARID3A WT/KO: 1.6
  ARL4C WT/KO: 1.0
  ASF1A WT/KO: 1.8
  ATRX WT/KO: 1.6
  B3GAT3 WT/KO: 5.5
  BACE1 WT/KO: 3.2
  BAMBI WT/KO: 2.7
  BCL2L1 WT/KO: 6.0
  BCL2 WT/KO: 5.4
  BHLHB2 WT/KO: 3.0
  BID WT/KO: 1.1
  C8ORF4 WT/KO: 8.7
  C9ORF26 WT/KO: 2.1
  CCL2 WT/KO: 21.7
  CCL3 WT/KO: 4.1
  CCL4 WT/KO: 1.9
  CCL5 WT/KO: 1.4
  CCL7 WT/KO: 3.2
  CCL13 WT/KO: 2.9
  CCND2 WT/KO: 3.2
  CCNE1 WT/KO: 1.1
  CCNF WT/KO: 4.4
  CCRN4L WT/KO: 3.6
  CD37 WT/KO: 4.7
  CD40 WT/KO: 7.9
  CD86 WT/KO: 1.8
  CD274 WT/KO: 5.9
  CDC6 WT/KO: 1.2
  CDC7 WT/KO: 2.2
  CDC37L1 WT/KO: 1.7
  CDKN1A WT/KO: 2.7
  CEBPB WT/KO: 1.7
  CITED2 WT/KO: 4.6
  CLCA1 WT/KO: 2.5
  CNR2 WT/KO: 4.0
  CREBBP WT/KO: 0.7
  CXCL10 WT/KO: 3.3
  DAXX WT/KO: 4.9
  DSCR1 WT/KO: 1.3
  FGD6 WT/KO: 1.5
  FGL2 WT/KO: 2.9
  GBP2 WT/KO: 3.1
  GBP4 WT/KO: 1.6
  GBP6 WT/KO: 1.6
  GYPC WT/KO: 1.3
  IFI16 WT/KO: 1.6
  IFI35 WT/KO: 3.3
  IFI203 WT/KO: 6.4
  IFI205 WT/KO: 3.5
  IFIH1 WT/KO: 1.4
  IFIT1 WT/KO: 1.5
  IFIT2 WT/KO: 1.9
  IFIT3 WT/KO: 3.1
  IFNA5 WT/KO: 12.9
  IFNA6 WT/KO: 8.6
  IFNB1 WT/KO: 178.6
  IFNG WT/KO: 0.8
  IGTP WT/KO: 11.2
  IIGP1 WT/KO: 18.7
  IL6 WT/KO: 41.8
  IL12B WT/KO: 3.2
  IL15RA WT/KO: 4.5
  IL15 WT/KO: 4.3
  IRF1 WT/KO: 5.9
  IRF2 WT/KO: 3.5
  IRGM WT/KO: 2.9
  ISG20 WT/KO: 6.1
  KATNA1 WT/KO: 2.1
  LGP2 WT/KO: 2.4
  LHX2 WT/KO: 11.9
  LOC129607 WT/KO: 7.6
  MAFK WT/KO: 3.0
  MARCH5 WT/KO: 2.5
  MOV10 WT/KO: 3.4
  MX1 WT/KO: 20.7
  MX2 WT/KO: 74.3
  NMI WT/KO: 2.9
  NP WT/KO: 2.5
  NT5C3 WT/KO: 3.6
  OAS1B WT/KO: 6.2
  OASL WT/KO: 1.8
  P4HA1 WT/KO: 1.2
  P8 WT/KO: 2.9
  PARP9 WT/KO: 2.8
  PELI1 WT/KO: 1.4
  PGF WT/KO: 1.3
  PLAU WT/KO: 1.7
  PPP1R15A WT/KO: 3.4
  PTX3 WT/KO: 4.0
  PVRL2 WT/KO: 2.1
  PVRL4 WT/KO: 2.1
  REL WT/KO: 2.8
  RGC32 WT/KO: 2.9
  RIPK2 WT/KO: 2.5
  RSAD2 WT/KO: 2.0
  SAP30 WT/KO: 2.4
  SAV1 WT/KO: 1.2
  SDC4 WT/KO: 1.2
  SECTM1 WT/KO: 15.0
  SLC7A2 WT/KO: 2.0
  SOAT1 WT/KO: 1.8
  SOCS1 WT/KO: 16.7
  STAT2 WT/KO: 2.3
  TGTP WT/KO: 38.6
  TLK2 WT/KO: 3.0
  TLR3 WT/KO: 6.8
  TMOD3 WT/KO: 1.5
  TNF WT/KO: 5.0
  TNFRSF11B WT/KO: 0.9
  TNFSF9 WT/KO: 3.0
  TOR1AIP1 WT/KO: 2.4
  TPST1 WT/KO: 1.1
  TREX1 WT/KO: 2.0
  TRIM21 WT/KO: 3.2
  TRIM25 WT/KO: 1.8
  TRIM34 WT/KO: 1.7
  USP18 WT/KO: 11.4
  VCAM1 WT/KO: 2.1
  ZBP1 WT/KO: 3.7
  ZNF313 WT/KO: 2.1
